Data from patent US20030220524A1, “Sulfur containing compounds” (priority 2000, published 2003).
Read-outs that look alike come from different tables or passages of the source. Blank lines part the entries; values can stand above or below the compound they belong to.

Legend:
Format in all cases: cell-based, human
KK leukemic cell line = experiment: Fixed propidium iodide staining, flow cytometry; conditions: 48 h
Protocol: (§1) Adherent cell lines were plated at 35×10^4 cells/60 cm^2 dish the day before exposure to compound. Suspension cells were seeded at 25×10^4 cells/mL in a 6 well dish (Falcon) the day of exposure to compound. Mononucleated, T-cell depleted normal bone marrow cells were seeded at 50×10^4 cells/mL in a 6 well dish the day of exposure to compound. Cells were exposed to solvent control or approximate MTT50 and MTT30 concentrations of the compound. After 48 h of exposure to the compound, cells were harvested, fixed in 80% ethanol for 1 h on ice and labeled with 50 μg/mL propidium iodide (Sigma). Approximately 10^6 cells were analyzed using a XL-MCL flow cytometer (Coulter Corporation, Miami, Fla.) and a FACScalibar cytometer (Becton Dickinson, San Jose, Calif.). Profiles shown are a representative.
as §1, with “cm2” for “cm^2”, “concentrations.” for “concentrations of the compound.”, “representative. Cell viability counts and Pi staining were performed as previously described (Dimitroulakos, J, Nohynek, D, Backway, K L, Hedley, D W, Yeger, H, Freedman, M H, Minden, M D and Penn, L Z: Increased sensitivity of acute myeloid leukemias to lovastatin-induced apoptosis: A potential therapeutic approach. Blood 93: 1308-18, 1999).” for “representative.”

B1 leukemic cell line = experiment: MTT assay; conditions: 48 h, read-out: MTT50
Protocol: All cell lines were assayed as asynchronously growing cells. Leukemic cell lines, OCI-AML-2, OCI-AML-3 (referred to hereafter as AML-2 and AML-3, respectively), NB-4, KK, B1, G2, and W1 were cultured in alpha-minimal essential medium (α-MEM) (Princess Margaret Hospital Media Services) supplemented with 10% fetal bovine serum (FBS) (Sigma, St. Louis, Mo.). Non-transformed, diploid fibroblast lines WI38 and IMR90, were cultured in α-MEM and MEM F-15, respectively supplemented with 10% FBS. Media for IMR90 cells was also supplemented with 1.5 g/L bicarbonate and 1 mM pyruvate. Breast tumour cell lines, MDA-231, SK-BR-3, MCF-7, ZR-751, and melanoma tumour cell lines, WM9, WM983, WM793, 1232, were grown in α-MEM supplemented with 10% fetal bovine serum. Prostate tumour cell lines, DU145 and PC-3, were grown in RPMI 1640 media supplemented with 10% FBS. All cell lines were cultured in the presence of penicillin/streptomycin. Mononucleated cells were isolated from normal bone marrow using Ficoll hypaque and then T-cell depleted. T-cell depletion was performed by incubating the mononucleated bone marrow cells in α-MEM at a concentration of 2×10^7 cells/mL with 10% absor FBS and 10% (v/v) sheep red blood cells for 4 to 16 h. Absor FBS was prepared beforehand by heating FBS at 56° C. for 1 h, incubating with sheep red blood cells at 0.5% (v/v) for 1 h and then filtering the FBS with a […]. The T-cell depleted, mononucleated cells were recovered using Ficoll hypaque and were maintained in α-MEM supplemented with 20% FBS and 10% 5637 ? nditioned media. 5637 conditioned media ? s previously harvested from confluent 5637 cells after a 3 day incubation. Normal bone marrow from bone marrow transplant donor was collected following informed consent according to institutional guidelines.
Approximately 20 mg of each compound was dissolved in 5 mL of ACS grade acetone (Sigma) using a 5 mL volumetric flask. Stock solutions of the compounds were stored in the dark at −20° C. Compounds were diluted prior to each experiment.
Adherent cells were seeded at 67×10^3 cells/mL in a 96 well plate (Falcon, Mississauga, Ontario) the day prior to exposure to compound. Suspension cells were seeded at 27×10^4 cells/mL in a 96 well plate the day of exposure to compound. Mononucleated, T-cell depleted normal bone marrow cells were seeded at 67×10^4 cells/mL in a 96 well plate the day of exposure to compound. Compounds and solvent control were added to cells and assayed in triplicate or sextuplet. Following 48 h of incubation at 37° C. with 5% CO2, 40 μL of a 5 mg/mL solution of 3-[4,5-dimethylthiazol-2-yl]-2,5-diphenyltetrazolium bromide (MTT) substrate (Sigma) in Dulbecco's phosphate-buffered saline (D-PBS) was added. After 4 h of incubation at 37° C. with 5% CO2, the resulting violet formazan precipitate was solubilized by the addition of 80 μL of a 0.01 M HCI, 10% sodium dodecyl sulfate (SDS; Sigma) solution overnight at 37° C. with 5% CO2. The plates were then analyzed using the BioRad Benchmark Microplate Reader (BioRad Laboratories, Hercules, Calif.) at 570 nm to determine the optical density of the samples. MTT data was analyzed using Prism 3.0 (GraphPad Software, Inc., San Diego, Calif.) by the Chou-Talalay method. MTT graphs shown are a representative experiment.
Adherent cells were seeded at 67×10^3 cells/mL in a 96 well plate (Falcon, Mississauga, Ontario) the day prior to exposure to compound. Suspension cells were seeded at 27×10^4 cells/mL in a 96 well plate the day of exposure to compound. Mononucleated, T-cell depleted normal bone marrow cells were seeded at 67×10^4 cells/mL in a 96 well plate the day of exposure to compound. Compounds and solvent control were added to cells and assayed in triplicate or sextuplet. […]

[1] = tested on: WI38 non-transformed diploid fibroblasts; experiment: Fixed propidium iodide staining, flow cytometry; conditions: 48 h
Protocol: as §1
as §1, with “cm2” for “cm^2”, “concentrations.” for “concentrations of the compound.”, “representative. Cell viability counts and Pi staining were performed as previously described (Dimitroulakos, J, Nohynek, D, Backway, K L, Hedley, D W, Yeger, H, Freedman, M H, Minden, M D and Penn, L Z: Increased sensitivity of acute myeloid leukemias to lovastatin-induced apoptosis: A potential therapeutic approach. Blood 93: 1308-18, 1999).” for “representative.”

[2] = dose 50 uM (229 ug/mL) as printed

Compound: CSCSCS(C)(=O)=O [B]
% pre-G1 (Fixed PI) (KK leukemic cell line; dose 107 uM (20 ug/mL)): 1.1%

Compound: CS(C)(=O)=O [Compound A, dimethyl sulfone]
% pre-G1 (Fixed PI) (KK leukemic cell line; dose 212 uM (20 ug/mL)): 1.1%

IC50 (B1 leukemic cell line; B1): 13 µM
Compound: CSSCS(=O)(=O)c1ccc(C)cc1 [Compound C, α-p-toluenesulfonyl dimethyl disulphide]
% pre-G1 (Fixed PI) (KK leukemic cell line; dose 40.3 uM (20 ug/mL)): 20.6%

Compound: CSCSSC [Compound N, 2,3,5-trithiahexane]
IC50 (B1 leukemic cell line; Homo sapiens): 94.4 µM
% G2 increase (Fixed PI) ([1]; dose 50 uM): +7%
% pre-G1 (Fixed PI) ([1]; dose 50 uM): 2%
% G2 increase (Fixed PI) ([1]; dose 150 uM): +25%
% pre-G1 (Fixed PI) ([1]; dose 150 uM): 4%
% G2 increase (Fixed PI) (KK leukemic cell line; dose 50 uM): +4%
% pre-G1 (Fixed PI) (KK leukemic cell line; dose 50 uM): 13%
% G2 increase (Fixed PI) (KK leukemic cell line; dose 150 uM): +5%
% pre-G1 (Fixed PI) (KK leukemic cell line; dose 150 uM): 10%

IC50 (B1 leukemic cell line; Homo sapiens, B1): 94.4 µM
Compound: CSSCC(=O)c1ccccc1 [Compound P, phenacyl methyl disulphide]
% pre-G1 (Fixed PI) ([1]; dose 50 uM): 2%
% pre-G1 (Fixed PI) ([1]; dose 150 uM): 52%

IC50 (B1 leukemic cell line; Homo sapiens, B1): 14.3 µM
Compound: CCC(=O)OCSSc1ccccc1 [Compound Q, 1-phenyl-1,2-dithiapropyl propionate]
% G2 increase (Fixed PI) ([1]; dose 20 uM): +3%
% pre-G1 (Fixed PI) ([1]; dose 20 uM): 1%
% G2 increase (Fixed PI) ([1]; dose 40 uM): +10%
% pre-G1 (Fixed PI) ([1]; dose 40 uM): 1%
% pre-G1 (Fixed PI) (KK leukemic cell line; dose 20 uM): 15%
% G2 increase (Fixed PI) (KK leukemic cell line; dose 40 uM): −4%
% pre-G1 (Fixed PI) (KK leukemic cell line; dose 40 uM): 43%

Compound: c1ccc(SSc2ccccc2)cc1 [D, diphenyl disulphide]
% pre-G1 (Fixed PI) (KK leukemic cell line; dose 91.6 uM (20 ug/mL)): 33.9%

IC50 (B1 leukemic cell line; Homo sapiens, B1): 4.3 µM
Compound: CS(=O)(=O)CSSc1ccccc1 [E, 5-phenyl-2,4,5-trithiapentane 2,2-dioxide]
% pre-G1 (Fixed PI) (KK leukemic cell line; dose 85.3 uM (20 ug/mL)): 34.7%

Compound: CSSCCS(C)(=O)=O [F, 2,3,6-trithiaheptane 6,6,-dioxide]
% G2/M (Fixed PI) [1, 2]: 17.8%
% pre-G1 (Fixed PI) [1, 2]: 0.1%
% pre-G1 (Fixed PI) (KK leukemic cell line; dose 91.6 uM (20 ug/mL)): 3.8%

Compound: CS(=O)(=O)CSCS(C)(=O)=O [G, 2,4,6-trithiaheptane 2,2,6,6-tetraoxide]
% pre-G1 (Fixed PI) (KK leukemic cell line; dose 91.6 uM (20 ug/mL)): 3.8%

Compound: COC(=O)CSSC [H, methyl 3,4-dithiopentanoate]
% pre-G1 (Fixed PI) ([1]; dose 985 uM (150 ug/mL)): 0.7%
% pre-G1 (Fixed PI) (KK leukemic cell line; dose 133.4 uM (20 ug/mL)): 5.9%

Compound: CSSCOC(C)=O [I, 2,3-dithiabutyl acetate]
% pre-G1 (Fixed PI) (KK leukemic cell line; dose 65.7 uM (10 ug/mL)): 48.4%

IC50 (B1 leukemic cell line; Homo sapiens, B1): 12.7 µM
Compound: CSSc1ccc([N+](=O)[O-])cc1 [M, methyl p-nitrophenyl disulphide]
% pre-G1 (Fixed PI) ([1]; dose 40 uM): 16%
% pre-G1 (Fixed PI) ([1]; dose 120 uM as printed): 119%
